Patent US6294521A, “Phosphosugars and phosphosugar-containing compounds having anti-inflammatory activity” (Australian National University, priority 1996, dated 2001)

Tests used:
[1] = tested on: mannose-6-phosphate receptor (insulin-like growth factor II or IGF-II receptor); test: Competitive binding assay: uptake of fluorescein-labelled polysaccharide (PPME) by U937 monocytes; assay type: cell-based, human (U937 cell line); conditions: uptake of fluoresceinated-PPME (100 μg/ml), U937 cells, 60 minutes at 37° C.; FIG. 1
Description: The novel mannoside 6-phosphates have similar affinities for the mannose-6-phosphate receptor (insulin-like growth factor II or IGF-II receptor) as the natural ligand, mannose-6-phosphate. In order to assess the binding of the novel mannoside 6-phosphates to the M6P receptor a competitive binding assay was used. In this assay a fluorescein-labelled, polysaccharide (PPME) which contains abundant mannose-6-phosphate groups, was used to detect uptake through the M6P receptor on human monocytes (U937 cell line). PPME was isolated and purified by the method of Bretthauer et al., (23) from the exopolysaccharide secreted by the yeast Pichia holstii. […]
The human monocyte cell line U937, which has a relatively high content of M6P receptors on its cell Surface (25), was obtained from the American Type Culture Collection (Rockville, Md.) and was maintained in RPMI 1640 medium (Gibco, Gaitersburg, Md.) supplemented with 2 mg/ml sodium bicarbonate, 0.2 mM glutamine, 30 μg/ml penicillin, 50 μg/ml streptamycin sulfate and 50 μg/ml neomycin sulfate and 10% foetal calf serum (FCS; Commonwealth Sarum Laboratories, Melbourne, Anstalia) at 37° C. […] Following incubations, the cells were washed twice with 10% FCS/RPMI and once with PBS and then fixed with 1% paraformaldehyde in PBS and analysed for fluorescence by flow cytometry. […]

[2] = Contact sensitivity to picryl chloride, ear swelling; assay type: in vivo, CBA female mice; conditions: n=5; for inhibition at 330 mg/kg/day: Mus musculus, sc, Table 3, 6 injections s.c.; for % swelling: Table 3, 330 mg/kg/day, 6 injections s.c., control = 100
Description: Contact sensitivity is a type of delayed hypersensitivity which ours following exposure to sensitising agents including low molecular weight reactive chemical entities such as dinitro chlorobenzene (DNCB) and picryl chloride (19,21) as well as the sensitising agents found in poison ivy and poison oak (19). In sensitised individuals, in those having previously been exposed to the sensitising agent, inflammatory leucocytes migrate from the blood stream into the area immediately beneath the affected tissue producing induration which is a cardinal characteristic of the delayed-type hypersensitivity reaction (21). Thus, contact sensitivity is a well recognised cell-mediated inflammatory response. In the experiment outlined below the novel mannoside 6-phosphates were compared with mannose-6-phosphate for their ability to inhibit contact sensitivity induced by picryl chloride.
In this experiment twenty CBA female mice were sensitised to picqyl chloride after the method of Enander et al., (22) by applying 200 μl of picryl chloride solution (0.5% in 95% ethanol) to an area (approximately 2 cm^2) of their shaved abdomens. Seven days following sensitisation these animals were divided into four groups of five mice which bad been treated with either mannose-6-phosphate (55 mg/kg), methyl mannoside 6-phosphate (330 mg/kg) or decyl mannoside 6-phosphate (55 mg/kg) or saline (control) 30 minutes before they were challenged by applying 100 μl of picryl chloride solution (1% in 95% ethanol) to both sides of their left ears. Their right ears (control) were treated with 100 μl of 95% ethanol. Three and one half hours following challenge a second injection of drug or saline was given and this was repeated four times at 4 hour intervals. Four hours following the last injection the mice were anaesthetised (ether) and the contact sensitivity determined by comparing the thickness of the picryl chloride treated ears with those of the control ears. As shown in Table 3 the novel mannoside phosphates inhibited accumulation of inflammatory cells in challenged ears more effectively than mannose-6-phosphate.

[3] = Delayed-type hypersensitivity (DTH) footpad swelling, sheep red blood cell antigen; assay type: in vivo, CBA mice; conditions: Table 2, q.i.d. s.c., n=5, mean, 220 mg/kg/day (mannose 6-phosphate) or 200 mg/kg/day (others); for inhibition at 220 mg/kg: Mus musculus, Erythrocyte; for % swelling: control = 100
[4] = Inhibition of passively-transferred EAE in rats, parenteral treatment; assay type: in vivo, Lewis rats; conditions: for inhibition of development of disease (EAE), in words: 8 hourly subcutaneous doses for seven days, 220 mg/kg/day (mannose-6-phosphate), 200 mg/kg/day (others); for % with clinical signs of EAE: n=5; for % with clinical signs of EAE / Mean Maximum clinical score: 220 mg/kg/day (mannose 6-P) or 200 mg/kg/day (others); for Mean Maximum clinical score: controls 2.8 (saline), 3.3 (PEG 200)
Description: International Patent PCT/AU89/00350 identified several simple phosphosugars which had potent anti-inflammatory activity against cell-mediated inflammatory diseases such as EAE. The novel mannose 6-phosphate derivatives of the present invention have improved pharmacodynamic and pharmacokinetic properties. Thus, some of these agents are effective against EAE when they are injected either subcutaneously or intraperitoneally in rats, whereas the parent substance, mannose-6-phosphate is ineffective when administered in this manner.
In this Example, some typical novel mannoside 6-phosphates of the present invention were compared with mannose-6-phosphate for their ability to inhibit the development of […] in rats. In this experiment, according to the method of Panitch and McFarlin (18), donor Lewis rats were immunised with 50 μg myelin basic protein in complete Freund's adjuvant and 10-12 days later the spleens from these rats were removed and made into a single cell suspension. Thus, these cells, 2×10^6 ml^-1, were cultured in RPMI medium with 5% fetal calf serum, 5×10^-5 M 2-mercaptoethanol, 2 mM L-glutamine plus 30 μg/ml penicillin, 50 μg/ml streptamycin sulfate. Con A was added at 2 μg ml^-1 and cultures were incubated at 37° C. in a humidified atmosphere of 5% CO2, 7% O2 and the balance N2. Cells were harvested after 72 hours, washed once wit Hanks balanced salt solution, and 70×10^6 viable cells were then transferred to naive Lewis rat recipients via a lateral tail vein in order to induce EAE.

[5] = experimental animals; EAE, adjuvant-induced arthritis, DTH; WO 90/01938; cited from earlier work
[6] = Table 1, t.i.d. s.c., seven days

Row | Structure (SMILES) | inhibition of binding of the natural ligand, in words [1] | inhibition at 330 mg/kg/day [2] [%] | % swelling [2] [%] | inhibition at 220 mg/kg [3] [%] | % swelling [3] [%] | inhibition of development of disease (EAE), in words [4] | % with clinical signs of EAE [4, 6] [%] | Mean Maximum clinical score [4, 6] | Mean Duration ([4]; Table 1, t.i.d. s.c., seven days, 220 mg/kg/day, saline control 4.1) [days] | Mean day of onset ([4]; Table 1, t.i.d. s.c., seven days, 220 mg/kg/day, saline control 5.2) [days] | effectiveness against EAE, in words ([4]; injected either subcutaneously or intraperitoneally in rats) | anti-inflammatory activity against cell-mediated inflammatory diseases, in words [5]
1 | O=P(O)(O)OC[C@H]1OC(OCCCCCCOC2O[C@H](COP(=O)(O)O)[C@@H](O)[C@H](O)[C@@H]2O)[C@@H](O)[C@@H](O)[C@@H]1O (stereo partly drawn) [1,6-hexamethyene di(D-mannoside 6-phosphate)] | effective inhibitor of binding | – | – | – | – | – | – | – | – | – | – | –
2 | CO[C@H]1O[C@H](COP(=O)(O)O)[C@@H](O)[C@H](O)[C@@H]1O [methyl mannoside 6-P, Methyl α-D-mannoside 6-phosphate] | – | 50 | 50 | – | – | – | – | – | – | – | – | –
3 | CCCCCCCCCCCCCCCCOC1O[C@H](COP(=O)(O)O)[C@@H](O)[C@H](O)[C@@H]1O (stereo partly drawn) [hexadecyl mannoside 6-P, hexadecyl D-mannoside 6-phosphate] | – | – | – | 80 | 20 | completely inhibited the development of disease | 0 | 0 | – | – | – | –
4 | CCCCCCCCCCOC1O[C@H](COP(=O)(O)O)[C@@H](O)[C@H](O)[C@@H]1O (stereo partly drawn) [decyl mannoside 6-P, Decyl D-mannoside 6-phosphate] | – | 77 | 23 | 70 | 30 | completely inhibited the development of disease | 0 | 0 | – | – | – | –
5 | O=P(O)(O)OC[C@H]1OC(O)[C@@H](O)[C@@H](O)[C@@H]1O (stereo partly drawn) [mannose-6-phosphate, D-mannose-6-phosphate, reference compound] | – | 17 | 83 | 20 | 80 | ineffective in inhibiting development of disease symptoms | 100 | 2.8 | 4.0 | 5.2 | ineffective | shown to have anti-inflammatory activity
6 | O=P(O)(O)OC[C@H]1OC(OCCCCCCCCCCCCCCCCOC2O[C@H](COP(=O)(O)O)[C@@H](O)[C@H](O)[C@@H]2O)[C@@H](O)[C@@H](O)[C@@H]1O (stereo partly drawn) [1,16-hexadecamethylene di(D-mannoside 6-phosphate)] | – | – | – | – | – | completely inhibited the development of disease | 0 | 0 | – | – | – | –
